Source: patent US20250160275A1, “COMPOUNDS FOR MODIFYING MEIOTIC RECOMBINATION AND METHODS RELATING THERETO” (The University of North Carolina at Chapel Hill, priority 2022, published 2025)

Columns and labels:
Assay type in all cases: in vivo
[1] = test system: flowering Arabidopsis thaliana plants; assay: visual fluorescent pollen transgene assay, crossover frequency in interval I2a (chromosome 2)
[2] = test system: flowering Arabidopsis thaliana plants; assay: visual fluorescent pollen transgene assay, crossover frequency in interval I2b (chromosome 2); settings: for NPD (Nonparental Ditype pollen tetrads) / PD (Parental Ditype pollen tetrads) / TT (Tetratype pollen tetrads) / genetic map distance: 0.01% Silwet in water, Exp.(1); for genetic map distance: Water control 5.11 cM
[3] = test system: flowering Arabidopsis thaliana plants; assay: visual fluorescent pollen transgene assay, crossover frequency in interval I5d (chromosome 5)
Protocol: An aqueous solution of 3-aminobutanoic acid was applied to flowering Arabidopsis thaliana plants to enhance the frequency of meiotic recombination (crossovers). Silwet, a spraying adjuvant, was added to the 3-aminobutanoic acid solution at a volume/volume concentration of 0.01%. The solution was applied to the plants by foliar spraying until the plants were drenched. Several concentrations of 3-aminobutanoic acid were used including 0.1, 1, 7.5, 10, 12.5 and 15 mM. As a control, other plants (i.e., control plants) were treated with an aqueous 0.01% solution of Silwet by foliar spraying the solution on the plants until the plants were drenched.
(§1) Crossover frequencies were measured in pollen from treated and control plants using a visual fluorescent pollen transgene assay as described in Francis et al., Proc Natl Acad Sci USA. 2007; 104 (10): 3913-3918. In this assay pollen tetrads are scored as Parental Ditype (PD), Nonparental Ditype (NPD) or Tetratype (TT) and the frequency of those tetrad classes are used to calculate a genetic map distances in centiMorgans (cM) between reporter genes expressing fluorescent proteins. The genetic map distances between a pair of markers on chromosome 5 were compared between control plants and treated plants. The genetic interval between the two markers was designated as I5d. […] In Table 2, each experimental treatment is paired with data from control plants that were treated and scored together and designated with an experiment number in the first column.
An aqueous solution phenethyl isothiocyanate (IUPAC name: 2-isothiocyanatoethylbenzene) was applied to flowering Arabidopsis thaliana plants to enhance the frequency of meiotic recombination (crossovers). Phenethyl isothiocyanate in an aqueous solution containing 10% DMSO and 0.01% Silwet was applied by foliar spray until the plants were drenched. The phenethyl isothiocyanate was first dissolved in 100% DMSO and then diluted to its final concentration with 0.0.1% Silwet in water. Several concentrations of phenethyl isothiocyanate were used including 7.5, 10, and 12.5 mM. Control plants were treated with an aqueous solution of 10% DMSO and 0.01% Silwet by foliar spraying the solution on the control plants until the control plants were drenched.
as §1, with “4,” for “2,”
An aqueous solution BIX-01294 (IUPAC name: N-(1-benzylpiperidin-4-yl)-6,7-dimethoxy-2-(4-methyl-1,4-diazepan-1-yl) quinazolin-4-amine) was applied to flowering Arabidopsis thaliana plants to enhance the frequency of meiotic recombination (crossovers). BIX-01294 in an aqueous solution containing 10% DMSO and 0.01% Silwet was applied by foliar spray until the plants were drenched. The BIX-01294 was first dissolved in 100% DMSO and then diluted to its final concentration with 0.0.1% Silwet in water. Several concentrations of […] were used including 0.5, 1, 2.5 and 5 mM. Control plants were treated with an aqueous solution of 10% DMSO and 0.01% Silwet by foliar spraying the solution on the control plants until the control plants were drenched. […]

[4] = 2.5 mM foliar spray, Example 4, Exp.(1)
[5] = 7.5 mM foliar spray, Example 4, Exp.(1)
[6] = 10 mM foliar spray, Example 4, Exp.(1)
[7] = 0.1 mM foliar spray, 0.01% Silwet in water, Exp.(1)
[8] = 1 mM foliar spray, 0.01% Silwet in water, Exp.(2)
[9] = 10 mM foliar spray, 0.01% Silwet in water, Exp.(1)
[10] = 12.5 mM foliar spray, 0.01% Silwet in water, Exp.(3)
[11] = 15 mM foliar spray, 0.01% Silwet in water, Exp.(3)
[12] = 0.1 mM foliar spray, 10% DMSO and 0.01% Silwet, Exp.(1)
[13] = 0.5 mM foliar spray, 10% DMSO and 0.01% Silwet, Exp.(1)
[14] = 1 mM foliar spray, 10% DMSO and 0.01% Silwet, Exp.(1)
[15] = 2.5 mM foliar spray, 10% DMSO and 0.01% Silwet, Exp.(2)
[16] = 5 mM foliar spray, 10% DMSO and 0.01% Silwet, Exp.(2)
[17] = 1 mM foliar spray, 10% DMSO and 0.01% Silwet, Exp.(2)
[18] = 2.5 mM foliar spray, 10% DMSO and 0.01% Silwet, Exp.(3)
[19] = 5 mM foliar spray, 10% DMSO and 0.01% Silwet, Exp.(3)

CC(N)CC(=O)O (stereo not shown) [3-aminobutanoic acid]
NPD (Nonparental Ditype pollen tetrads) [1, 4]: 0
PD (Parental Ditype pollen tetrads) [1, 4]: 924
TT (Tetratype pollen tetrads) [1, 4]: 67
genetic map distance ([1]; 2.5 mM foliar spray, Example 4, Exp.(1), DMSO control 2.32 cM, p-value 0.021): 3.38 cM
NPD (Nonparental Ditype pollen tetrads) [1, 5]: 0
PD (Parental Ditype pollen tetrads) [1, 5]: 914
TT (Tetratype pollen tetrads) [1, 5]: 66
genetic map distance ([1]; 7.5 mM foliar spray, Example 4, Exp.(1), DMSO control 2.32 cM, p-value 0.023): 3.37 cM
NPD (Nonparental Ditype pollen tetrads) [1, 6]: 0
PD (Parental Ditype pollen tetrads) [1, 6]: 941
TT (Tetratype pollen tetrads) [1, 6]: 60
genetic map distance ([1]; 10 mM foliar spray, Example 4, Exp.(1), DMSO control 2.32 cM, p-value 0.090): 3.00 cM
meiotic recombination in treated plants compared to control plants ([1]; Example 4, 2.5 and 7.5 mM, two of three concentrations (not 10 mM)): increased meiotic recombination
NPD (Nonparental Ditype pollen tetrads) ([2]; 7.5 mM foliar spray): 3
PD (Parental Ditype pollen tetrads) ([2]; 7.5 mM foliar spray): 867
TT (Tetratype pollen tetrads) ([2]; 7.5 mM foliar spray): 128
genetic map distance ([2]; 7.5 mM foliar spray, p-value 0.006): 7.31 cM
NPD (Nonparental Ditype pollen tetrads) ([2]; 10 mM foliar spray): 1
PD (Parental Ditype pollen tetrads) ([2]; 10 mM foliar spray): 866
TT (Tetratype pollen tetrads) ([2]; 10 mM foliar spray): 140
genetic map distance ([2]; 10 mM foliar spray, p-value 0.003): 7.25 cM
NPD (Nonparental Ditype pollen tetrads) ([2]; 12.5 mM foliar spray): 0
PD (Parental Ditype pollen tetrads) ([2]; 12.5 mM foliar spray): 865
TT (Tetratype pollen tetrads) ([2]; 12.5 mM foliar spray): 155
genetic map distance ([2]; 12.5 mM foliar spray, p-value 0.000): 7.60 cM
meiotic recombination in treated plants compared to control plants ([2]; all three concentrations (7.5, 10, 12.5 mM)): increased meiotic recombination
NPD (Nonparental Ditype pollen tetrads) [3, 7]: 0
PD (Parental Ditype pollen tetrads) [3, 7]: 926
TT (Tetratype pollen tetrads) [3, 7]: 178
genetic map distance ([3]; 0.1 mM foliar spray, 0.01% Silwet in water, Exp.(1), Water control 5.89 cM, p-value 0.002): 8.06 cM
NPD (Nonparental Ditype pollen tetrads) [3, 8]: 0
PD (Parental Ditype pollen tetrads) [3, 8]: 983
TT (Tetratype pollen tetrads) [3, 8]: 169
genetic map distance ([3]; 1 mM foliar spray, 0.01% Silwet in water, Exp.(2), Water control 5.37 cM, p-value 0.003): 7.34 cM
NPD (Nonparental Ditype pollen tetrads) [3, 9]: 0
PD (Parental Ditype pollen tetrads) [3, 9]: 1092
TT (Tetratype pollen tetrads) [3, 9]: 221
genetic map distance ([3]; 10 mM foliar spray, 0.01% Silwet in water, Exp.(1), Water control 5.89 cM, p-value 0.000): 8.42 cM
NPD (Nonparental Ditype pollen tetrads) [3, 10]: 4
PD (Parental Ditype pollen tetrads) [3, 10]: 908
TT (Tetratype pollen tetrads) [3, 10]: 166
genetic map distance ([3]; 12.5 mM foliar spray, 0.01% Silwet in water, Exp.(3), Water control 5.50 cM, p-value 0.000): 8.81 cM
NPD (Nonparental Ditype pollen tetrads) [3, 11]: 2
PD (Parental Ditype pollen tetrads) [3, 11]: 849
TT (Tetratype pollen tetrads) [3, 11]: 160
genetic map distance ([3]; 15 mM foliar spray, 0.01% Silwet in water, Exp.(3), Water control 5.50 cM, p-value 0.000): 8.51 cM
meiotic recombination in treated plants compared to controls ([3]; all concentrations (Table 2: 0.1, 1, 10, 12.5, 15 mM)): increase meiotic recombination

COc1cc2nc(N3CCCN(C)CC3)nc(NC3CCN(Cc4ccccc4)CC3)c2cc1OC [BIX-01294, N-(1-benzylpiperidin-4-yl)-6,7-dimethoxy-2-(4-methyl-1,4-diazepan-1-yl) quinazolin-4-amine]
NPD (Nonparental Ditype pollen tetrads) [1, 12]: 0
PD (Parental Ditype pollen tetrads) [1, 12]: 908
TT (Tetratype pollen tetrads) [1, 12]: 59
genetic map distance ([1]; 0.1 mM foliar spray, 10% DMSO and 0.01% Silwet, Exp.(1), DMSO control 2.19 cM, p-value 0.046): 3.05 cM
NPD (Nonparental Ditype pollen tetrads) [1, 13]: 0
PD (Parental Ditype pollen tetrads) [1, 13]: 922
TT (Tetratype pollen tetrads) [1, 13]: 84
genetic map distance ([1]; 0.5 mM foliar spray, 10% DMSO and 0.01% Silwet, Exp.(1), DMSO control 2.19 cM, p-value 0.000): 4.17 cM
NPD (Nonparental Ditype pollen tetrads) [1, 14]: 0
PD (Parental Ditype pollen tetrads) [1, 14]: 988
TT (Tetratype pollen tetrads) [1, 14]: 99
genetic map distance ([1]; 1 mM foliar spray, 10% DMSO and 0.01% Silwet, Exp.(1), DMSO control 2.19 cM, p-value 0.000): 4.55 cM
NPD (Nonparental Ditype pollen tetrads) [1, 15]: 0
PD (Parental Ditype pollen tetrads) [1, 15]: 777
TT (Tetratype pollen tetrads) [1, 15]: 55
genetic map distance ([1]; 2.5 mM foliar spray, 10% DMSO and 0.01% Silwet, Exp.(2), DMSO control 2.75 cM, p-value 0.163): 3.31 cM
NPD (Nonparental Ditype pollen tetrads) [1, 16]: 0
PD (Parental Ditype pollen tetrads) [1, 16]: 836
TT (Tetratype pollen tetrads) [1, 16]: 43
genetic map distance ([1]; 5 mM foliar spray, 10% DMSO and 0.01% Silwet, Exp.(2), DMSO control 2.75 cM, p-value 0.725): 2.45 cM
meiotic recombination in treated plants compared to control plants ([1]; 0.1, 0.5 and 1 mM, three of five concentrations (not 2.5, 5 mM)): increased meiotic recombination
NPD (Nonparental Ditype pollen tetrads) [3, 13]: 1
PD (Parental Ditype pollen tetrads) [3, 13]: 936
TT (Tetratype pollen tetrads) [3, 13]: 185
genetic map distance ([3]; 0.5 mM foliar spray, 10% DMSO and 0.01% Silwet, Exp.(1), DMSO control 6.04 cM, p-value 0.001): 8.51 cM
NPD (Nonparental Ditype pollen tetrads) [3, 17]: 0
PD (Parental Ditype pollen tetrads) [3, 17]: 829
TT (Tetratype pollen tetrads) [3, 17]: 131
genetic map distance ([3]; 1 mM foliar spray, 10% DMSO and 0.01% Silwet, Exp.(2), DMSO control 6.73 cM, p-value 0.454): 6.82 cM
NPD (Nonparental Ditype pollen tetrads) [3, 18]: 5
PD (Parental Ditype pollen tetrads) [3, 18]: 888
TT (Tetratype pollen tetrads) [3, 18]: 169
genetic map distance ([3]; 2.5 mM foliar spray, 10% DMSO and 0.01% Silwet, Exp.(3), DMSO control 5.31 cM, p-value 0.000): 9.37 cM
NPD (Nonparental Ditype pollen tetrads) [3, 19]: 4
PD (Parental Ditype pollen tetrads) [3, 19]: 938
TT (Tetratype pollen tetrads) [3, 19]: 156
genetic map distance ([3]; 5 mM foliar spray, 10% DMSO and 0.01% Silwet, Exp.(3), DMSO control 5.31 cM, p-value 0.001): 8.20 cM
meiotic recombination in treated plants compared to controls ([3]; 0.5, 2.5 and 5 mM, three of four concentrations (not 1 mM)): increase meiotic recombination
